Test results taken from publication PMC10053369, “Recombinant Analogs of Sea Anemone Kunitz-Type Peptides Influence P2X7 Receptor Activity in Neuro-2a Cells” (Marine Drugs, 2023).

Experiments:
P2X7 in Neuro-2a cells [1] = experiment: ATP-induced YO-PRO-1 uptake (P2X7 pore formation); type: cell-based, mouse
Experimental: (§1) Neuro-2a neuroblastoma cells (ATCC® CCL-131™) were obtained from American Type Culture Collection (Manassas, VA, USA). The cells were cultivated in DMEM medium (BioloT, St. Petersburg, Russia) supplemented with 10% of fetal bovine serum (BioloT, St. Petersburg, Russia) and 1% penicillin/streptomycin (BioloT, St. Petersburg, Russia) at 37 °C and 5% CO2. Initially, cells were incubated in cultural flasks until sub-confluent (~80%). For testing, Neuro-2a cells were seeded in 96-well plates and experiments were started after 24 h.
Neuro-2a cells were seeded in 96 well plates at a density of 4 × 10^4 cells/well and incubated in DMEM for 24 h, 37 °C, 5% CO2. Then the cells were washed once with HBSS and filled with 180 μL of the same buffer. YO-PRO-1 (Sigma-Aldrich, St. Louis, MO, USA, 5 μM final concentration) was loaded into the wells, the cells were incubated for 15 min at 37 °C. Further, the studied peptides were added to the cells at concentrations of 10, 1, 0.1 and 0.01 μM and incubated for 10 min at 37 °C. After that ATP (4 mM final concentration) was added and the plates were incubated for an additional 10 min. The standard P2X7R inhibitor, A438079 (Sigma-Aldrich, St. Louis, MO, USA), was used as inhibitory control. Then the cells were washed three times with the buffer solution and fluorescence intensity was measured with PHERAstar FS plate reader (BMG, LABTECH, Ortenberg, Germany) at λex = 485 nm and λem= 520 nm in the “End Point” mode. The effectiveness of compounds was evaluated relative to control without ATP.
(§2) All data were obtained in three independent replicates and calculated values were expressed as mean ± standard error of the mean (SEM). The Student’s t-test was performed using SigmaPlot 14.0 (Systat Software Inc., San Jose, CA, USA) to determine statistical significance.

[2] = tested on: pancreatic ductal adenocarcinoma cells; details: ref [31]; cited from earlier work
[3] = intrathecal; hind paw ipsilateral to the nerve injury; cited from earlier work
Description: (§3) Activated P2X7 has also been reported to alter reactive oxygen species (ROS) in microglia/macrophages as was shown, for example, in primary rat microglial cells. In cultured neurons of the dorsal horn of the spinal ...

[4] = tested on: cultured neurons of the dorsal horn of the spinal cord; details: cited from earlier work
Description: as §3

Neuro-2a cells = experiment: Cytoprotection against ATP-induced cell death (MTT assay); type: cell-based, mouse
Experimental: as §1
The cytoprotective effect of peptides was assessed in Neuro-2a cells using the MTT assay. In brief, an aliquot (180μL) of cell suspension with a nominal cell density of 3 × 10^4 cells/well was dispensed into 96-well plates. The cells were incubated for 24 h in a humidified atmosphere containing 5% CO2 to allow cell attachment. At the end of the preincubation period, ATP (Sigma-Aldrich, St. Louis, MO, USA) was added to the cells at a concentration of 4 mM. Studied peptides were added to the cells at concentrations of 0.1, 1.0 or 10.0 μM for 1h prior to the addition of ATP. After incubation for 48 h at 37 °C cell viability was detected using the MTT as described previously. The standard P2X7 inhibitor, A438079 (Sigma-Aldrich, St. Louis, MO, USA), at a concentration of 10 μM was used as a positive control.
as §2

[5] = tested on: spontaneously hypertensive rats; details: intracerebroventricular; ref [8]; cited from earlier work
Description: as §3

P2X7 in Neuro-2a cells [6] = experiment: ATP-induced Ca2+ influx (Fluo-8 AM); type: cell-based, mouse; details: for reduction of calcium level: 30 min pre-incubation, 1 mM ATP
Experimental: as §1
Neuro-2a cells were seeded in 96-well plates at a density of 4 × 10^4 cells/well and incubated in DMEM for 24 h at 37 °C, 5% CO2. Then the cells were washed twice with culture medium and loaded with 5 μM Fluo-8 AM (Abcam, Cambridge, UK) dye and 1 μM Pluronic® F-127 (Sigma-Aldrich, St. Louis, MO, USA), and incubated for 40 min at 37 °C in HBSS: 140 mM NaCl, 5 mM KCl, 0.8 mM MgCl2, 2 mM CaCl2, 10 mM glucose, 10 mM HEPES, pH 7.4. Then the cells were washed two times with the same solution but without the fluorescent dye and treated with the studied peptides for 30 min at RT in the dark. In some experiments Ca^2+-free medium was used: 140 mM NaCl, 5 mM KCl, 0.8 mM MgCl2, 10 mM glucose, 10 mM HEPES, 5 mM EGTA, pH 7.4. ATP (1 mM final concentration) was added using a microinjector (20 μL/well) 10 s later the baseline recording and the readings were taken up to 50 s in 1 s intervals. The standard P2X7 inhibitor, A438079 (Sigma-Aldrich, St. Louis, MO, USA), was used as inhibitory control. Ionomycin (Sigma-Aldrich, St. Louis, MO, USA) and BHQ were used to generate a generic calcium signal in cells. 2,5,-di(t-butyl) hydroquinone (BHQ) was synthesized and kindly provided by Dr. Polonik S.N. (PIBOC FEBRAS). Fluo-8 was excited at 485 nm, and the emission at 520 nm was measured with a PHERAstar®FS plate reader (BMG LABTECH, Ortenberg, Germany). The data were processed by MARS Data Analysis v. 3.01R2 (BMG Labtech, Ortenberg, Germany). Mean values and standard error of peak height calcium were calculated.
as §2

[7] = ref [14],[17],[18],[21],[38],[39],[40], cited from earlier work
Description: (§4) The studied peptides are analogs of sea anemone Kunitz-type peptides and attract our attention due to their wide spectrum of biological activity and ability to interact with important molecular targets.

TRPV1 receptor = details: modulator of TRPV1, depends on nature and strength of activation stimuli; ref [14],[17],[18],[21],[38],[39],[40]; cited from earlier work
Description: as §4

Clc1cccc(-c2nnnn2Cc2cccnc2)c1Cl [A438079, reference compound]
inhibition of YO-PRO-1 dye penetration vs ATP alone (P2X7 in Neuro-2a cells [1]; 10 μM A438079 pre-incubation, 4 mM ATP, mean ± SE, n = 3): up to 32%
ATP-induced uptake of YO-PRO-1 (P2X7 in Neuro-2a cells [1]; 0.01–10 μM peptides or 10 μM A438079, 10 min pre-incubation, 4 mM ATP): attenuated dye accumulation
ATP-induced pore formation and cell death [2]: very modest effects on ATP-induced pore formation and cell death
mechanical hypersensitivity [3]: suppressed the development of mechanical hypersensitivity
ATP or Bz-ATP-induced ROS production [4]: eliminated
increase in cell viability compared with ATP alone (Neuro-2a cells; pre-incubation with 10 μM A438079, then 4 mM ATP, 48 h, mean ± SE, n = 3): 18.2 ± 2.8%

Cc1nc(N=Nc2ccc(S(=O)(=O)O)cc2S(=O)(=O)O)c(COP(=O)(O)O)c(C=O)c1O [PPADS]
infarct volume and number of irreversibly damaged cells [5]: reduced infarct volume and the number of irreversibly damaged cells

APHC3: recombinant Kunitz-type peptide from H. magnifica (=H. crispa), UniProtKB C0HJF3 (GSICLEPKVVGPCTAYFPRFYFNSETGKCTPFIYGGCEGNGNNFETLRACRGICRA; left off: thioredoxin, end not stated, cleaved)
entry of YO-PRO-1 into cells (summary in discussion) (P2X7 in Neuro-2a cells [1]; short-term effect): regulating the entry of low molecular weight fluorescent dye YO-PRO-1 into cells
reduction of calcium level (P2X7 in Neuro-2a cells [6]; 0.1 μM peptide, mean ± SE, n = 3): 53.2 ± 24.95%
reduction of calcium level (P2X7 in Neuro-2a cells [6]; 0.1–10 μM peptide): significantly reduced the calcium level
effect on Ca2+ influx (summary in discussion) (P2X7 in Neuro-2a cells [6]; short-term effect): a significant effect on Ca^2+ influx into cells
protection from ATP-induced death (Neuro-2a cells; long-time application of ATP (4 mM, 48 h)): partially protected neuroblastoma cells from ATP-induced death
activity in models of inflammatory diseases ([7]; ex vivo and in vivo): potent activity
anti-inflammatory and analgesic activity [7]: significant anti-inflammatory and analgesic activity
EC50 (TRPV1 receptor): ~18 nM
